{"source": "patent US10526370B2", "about": "“Pentapeptide associated with integrin receptor alpha vbeta3” (priority 2015, dated 2020)", "key": {"U87MG cells [1]": {"tested_on": "U87MG cells", "assay": "In vitro cell affinity test (flow cytometry)", "type": "cell-based, human", "details": "rhodamine-labeled peptides, FIG. 1", "method": "The human malignant glioma cells (U87MG) and the human breast cancer cells (MDA-MB-231) were cultured in a 6-well plate for 12 hours. Then, 100 μL of a polypeptide fluorescent probe labeled with rhodamine B (final concentration 250 μM) was added and co-incubated for 2 hours with gently shaking on a shaker at 37° C. Next, the cells were digested with 0.05% trypsin and washed off from the 6-wells plate. The cells were re-suspended in 1 mL PBS buffer (pH 7.2), and centrifuged (3500 r, 5 min). The supernatant was aspirated and discarded. The pellet was washed twice with a PBS buffer (pH7.2). After washing, the cells were re-suspended in a PBS buffer (pH 7.2). The mean fluorescence intensity (MFI) of the cells was quantified by using a flow cytometer. The higher the fluorescence intensity is, the greater the affinity for the cells will be. When the probe has a high affinity for the receptor on the cells, the cells have a high value of MFI measured by the flow cytometer. […] The dye used as a blank has a MFI of 25."}, "MCF-7 cells": {"tested_on": "MCF-7 cells", "assay": "In vitro cellular uptake assay (laser confocal microscopy)", "type": "cell-based, human", "details": "MCF-7, 500 μmol/L, 2-hour incubation at 37° C., FIG. 4", "method": "(§1) The cultured human glioma cells U87MG, human breast cancer cells MDA-MB-231, human breast cancer cells MCF-7 and normal liver cells L02 were transferred to a confocal dish respectively, and incubated overnight. Then, the rhodamine B-labeled pentapeptide was added at the same concentration (500 μmol/L). The cyclic RGD labeled with the rhodamine B is added and used as a positive control. After 2-hour incubation at 37° C., the cells were stained with 12 μg/mL of the nuclear staining reagent Hochest 33342. Finally, the intracellular uptake of the probe was observed under a laser confocal microscope."}, "MDA-MB-231 cells": {"tested_on": "MDA-MB-231 cells", "assay": "In vitro cellular uptake assay (laser confocal microscopy)", "type": "cell-based, human", "details": "MDA-MB-231, 500 μmol/L, 2-hour incubation at 37° C., FIG. 3", "method": "as §1"}, "U87MG cells [2]": {"tested_on": "U87MG cells", "assay": "In vitro cellular uptake assay (laser confocal microscopy)", "type": "cell-based, human", "details": "500 μmol/L, 2-hour incubation at 37° C., FIG. 3", "method": "as §1"}, "L02 cells": {"tested_on": "L02 cells", "assay": "In vitro cellular uptake assay (laser confocal microscopy)", "type": "cell-based", "details": "L02, 500 μmol/L, 2-hour incubation at 37° C., FIG. 4", "method": "as §1"}, "[3]": {"assay": "In vitro cellular cytotoxicity assay", "type": "cell-based", "details": "human", "method": "When the U87MG cells, MCF-7 cells and normal liver cells L02 were grown to 90% confluent or higher, the cells were digested with 0.25% trypsin and then suspended in a complete growth medium to obtain a single cell suspension. The cells were plated at a density of 3000 cells/well in a 96-well plate, and cultured at 37° C. in an incubator containing 5% CO2. After 24-hour incubation, the medium was changed to a low-serum culture medium supplemented with 1% FBS. Then, the pentapeptide was added at different concentration gradients, to achieve a final concentration of 2.5, 5, 10, 20, 40, 80, 100 and 200 μM."}}, "note": "Entries after “also recorded” stand apart in the source; their conditions may differ. Read-outs that look alike come from different tables or passages of the source. Where a SMILES comes first, the peptide text is derived from it. [ ]: non-standard residue; d: D form.", "data": [{"compound": "CSCC[C@H](NC(=O)[C@H](CC(N)=O)NC(=O)[C@@H](CCCNC(=N)N)NC(=O)[C@H](Cc1c[nH]c2ccccc12)NC(=O)[C@@H](N)CCCNC(=N)N)C(N)=O", "note": "[pentapeptide, Arg-Trp-Arg-Asn-Met] (H-RW[dR]NM-NH2; N-terminus and C-terminus assumed)", "values": [{"measurement": "affinity for U87 cells (comparison in words)", "setting": "U87MG cells [1]", "value": "greatest affinity"}, {"measurement": "intracellular uptake of the probe (fluorescence intensity)", "setting": "MCF-7 cells", "value": "poor affinity and low"}, {"measurement": "intracellular uptake of the probe (fluorescence intensity)", "setting": "MDA-MB-231 cells", "value": "strong ability to uptake; also recorded: strong fluorescence intensity"}, {"measurement": "intracellular uptake of the probe (fluorescence intensity)", "setting": "U87MG cells [2]", "value": "strong ability to uptake; also recorded: strong fluorescence intensity"}, {"measurement": "intracellular uptake of the probe (fluorescence intensity)", "setting": "L02 cells", "value": "poor affinity and low"}, {"measurement": "viability", "setting": "[3]; MCF-7 cells, MCF-7, pentapeptide 2.5-200 μM, FIG. 6, read-out: cell survival rate", "value": "≥ 80", "unit": "%"}, {"measurement": "viability", "setting": "[3]; U87MG cells, pentapeptide 2.5-200 μM, FIG. 6, read-out: cell survival rate", "value": "≥ 80", "unit": "%"}, {"measurement": "viability", "setting": "[3]; normal liver cells L02, L02, pentapeptide 2.5-200 μM, FIG. 6, read-out: cell survival rate", "value": "≥ 80", "unit": "%"}]}]}
